Reference: ChEMBL document CHEMBL5223102, “CDK9 inhibitors in cancer research” (RSC Med Chem, 2022)

Legend:
[1] = target: T1, Cyclin-dependent kinase 2/cyclin A (Homo sapiens, UniProt P24941); assay: Inhibition of CDK2/cyclin A (unknown origin) assessed as substrate phosphorylation using ULight MBP peptide as substrate in presence of ATP incubated for 1 hr by FRET based LANCE Ultra KinaSelect screen assay; assay type: protein-complex assay
[2] = target: T2, Cyclin-dependent kinase 7 (Homo sapiens, UniProt P50613); assay: Inhibition of CDK7 (unknown origin) assessed as substrate phosphorylation using ULight MBP peptide as substrate in presence of ATP incubated for 1 hr by FRET based LANCE Ultra KinaSelect screen assay
T2 sequence (P50613 whole entry): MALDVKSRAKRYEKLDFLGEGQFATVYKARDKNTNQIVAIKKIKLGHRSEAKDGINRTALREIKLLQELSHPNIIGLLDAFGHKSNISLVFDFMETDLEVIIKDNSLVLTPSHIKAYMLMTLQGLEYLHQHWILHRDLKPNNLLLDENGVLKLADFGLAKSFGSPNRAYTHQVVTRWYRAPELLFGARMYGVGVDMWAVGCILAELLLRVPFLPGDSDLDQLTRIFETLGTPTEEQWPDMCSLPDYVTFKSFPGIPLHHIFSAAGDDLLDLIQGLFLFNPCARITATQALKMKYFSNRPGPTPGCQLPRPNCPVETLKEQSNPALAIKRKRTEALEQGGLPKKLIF

[3] = target: Cyclin-dependent kinase 6 (Homo sapiens, UniProt Q00534); assay: Inhibition of CDK6 (unknown origin) assessed as substrate phosphorylation using ULight MBP peptide as substrate in presence of ATP incubated for 1 hr by FRET based LANCE Ultra KinaSelect screen assay
Sequence of Cyclin-dependent kinase 6 (Q00534 whole entry): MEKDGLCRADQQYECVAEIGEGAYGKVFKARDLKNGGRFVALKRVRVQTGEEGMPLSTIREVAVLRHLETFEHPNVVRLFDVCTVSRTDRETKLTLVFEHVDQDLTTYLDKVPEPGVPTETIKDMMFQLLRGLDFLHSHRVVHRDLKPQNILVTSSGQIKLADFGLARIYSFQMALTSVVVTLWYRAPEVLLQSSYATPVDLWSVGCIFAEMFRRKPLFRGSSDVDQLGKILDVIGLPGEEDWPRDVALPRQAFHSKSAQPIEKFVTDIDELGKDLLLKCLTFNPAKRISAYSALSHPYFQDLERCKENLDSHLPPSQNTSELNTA

[4] = target: T3, Cyclin-dependent kinase 4/cyclin D1 (Homo sapiens, UniProt P11802); assay: Inhibition of CDK4/cyclin D1 (unknown origin) assessed as substrate phosphorylation using ULight MBP peptide as substrate in presence of ATP incubated for 1 hr by FRET based LANCE Ultra KinaSelect screen assay; assay type: protein-complex assay
T3 sequence (P11802 whole entry): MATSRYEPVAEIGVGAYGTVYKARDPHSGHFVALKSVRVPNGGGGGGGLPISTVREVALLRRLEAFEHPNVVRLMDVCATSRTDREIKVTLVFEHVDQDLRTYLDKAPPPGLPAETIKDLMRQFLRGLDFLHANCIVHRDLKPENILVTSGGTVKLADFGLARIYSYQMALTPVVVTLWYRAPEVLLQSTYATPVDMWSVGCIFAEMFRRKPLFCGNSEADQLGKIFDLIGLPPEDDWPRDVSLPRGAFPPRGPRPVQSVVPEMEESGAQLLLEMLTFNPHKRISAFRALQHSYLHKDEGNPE
T3 sequence (P24385 whole entry, further chain): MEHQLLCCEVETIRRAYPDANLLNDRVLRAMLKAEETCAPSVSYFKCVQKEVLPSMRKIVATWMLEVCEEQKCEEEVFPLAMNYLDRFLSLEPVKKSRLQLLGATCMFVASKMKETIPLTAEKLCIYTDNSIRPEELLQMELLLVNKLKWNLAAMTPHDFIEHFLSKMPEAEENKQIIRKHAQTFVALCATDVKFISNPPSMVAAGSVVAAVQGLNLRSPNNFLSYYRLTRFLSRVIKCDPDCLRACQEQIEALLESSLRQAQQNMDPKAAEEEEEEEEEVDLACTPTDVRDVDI

[5] = target: Cyclin-dependent kinase 1/cyclin B1 (Homo sapiens, UniProt P06493); assay: Inhibition of CDK1/cyclin B1 (unknown origin) assessed as substrate phosphorylation using ULight MBP peptide as substrate in presence of ATP incubated for 1 hr by FRET based LANCE Ultra KinaSelect screen assay; assay type: protein-complex assay
[6] = target: CDK4/Cyclin D3 (Homo sapiens, UniProt P11802); assay: Inhibition of human CDK4/Cyclin D3 in presence of ATP; assay type: protein-complex assay
Sequence of CDK4/Cyclin D3 (P11802 whole entry): as the sequence (P11802 whole entry) above
Sequence of CDK4/Cyclin D3 (P30281 whole entry, further chain): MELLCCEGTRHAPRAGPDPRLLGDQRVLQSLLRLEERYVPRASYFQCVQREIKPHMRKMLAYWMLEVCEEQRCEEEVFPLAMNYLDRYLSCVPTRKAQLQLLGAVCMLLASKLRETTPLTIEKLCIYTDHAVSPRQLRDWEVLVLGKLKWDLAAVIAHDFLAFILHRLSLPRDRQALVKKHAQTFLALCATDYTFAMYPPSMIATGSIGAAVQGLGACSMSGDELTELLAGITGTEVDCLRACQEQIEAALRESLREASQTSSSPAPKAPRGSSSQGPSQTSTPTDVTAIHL

[7] = target: CDK9/cyclin T1 (Homo sapiens, UniProt P50750); assay: Inhibition of human CDK9/cyclin T1 in presence of ATP; assay type: protein-complex assay
Sequence of CDK9/cyclin T1 (O60563 whole entry): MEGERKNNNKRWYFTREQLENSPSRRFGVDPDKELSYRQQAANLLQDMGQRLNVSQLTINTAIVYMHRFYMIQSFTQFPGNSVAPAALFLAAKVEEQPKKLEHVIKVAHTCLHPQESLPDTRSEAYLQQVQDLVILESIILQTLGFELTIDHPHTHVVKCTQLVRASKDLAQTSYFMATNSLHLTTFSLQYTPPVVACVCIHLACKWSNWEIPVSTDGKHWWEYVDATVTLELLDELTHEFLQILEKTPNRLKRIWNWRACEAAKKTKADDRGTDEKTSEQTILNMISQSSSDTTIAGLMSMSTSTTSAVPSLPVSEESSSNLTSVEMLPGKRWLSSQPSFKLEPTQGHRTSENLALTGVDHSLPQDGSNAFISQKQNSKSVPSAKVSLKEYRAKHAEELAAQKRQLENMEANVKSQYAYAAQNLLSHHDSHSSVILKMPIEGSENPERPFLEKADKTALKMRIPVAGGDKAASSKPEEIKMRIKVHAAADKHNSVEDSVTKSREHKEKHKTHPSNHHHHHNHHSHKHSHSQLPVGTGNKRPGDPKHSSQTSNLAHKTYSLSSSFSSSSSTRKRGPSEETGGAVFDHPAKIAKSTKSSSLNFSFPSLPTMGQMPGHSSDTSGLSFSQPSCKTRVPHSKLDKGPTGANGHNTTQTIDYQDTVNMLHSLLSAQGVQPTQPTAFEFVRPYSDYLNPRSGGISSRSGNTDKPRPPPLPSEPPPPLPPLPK
Sequence of CDK9/cyclin T1 (P50750 whole entry): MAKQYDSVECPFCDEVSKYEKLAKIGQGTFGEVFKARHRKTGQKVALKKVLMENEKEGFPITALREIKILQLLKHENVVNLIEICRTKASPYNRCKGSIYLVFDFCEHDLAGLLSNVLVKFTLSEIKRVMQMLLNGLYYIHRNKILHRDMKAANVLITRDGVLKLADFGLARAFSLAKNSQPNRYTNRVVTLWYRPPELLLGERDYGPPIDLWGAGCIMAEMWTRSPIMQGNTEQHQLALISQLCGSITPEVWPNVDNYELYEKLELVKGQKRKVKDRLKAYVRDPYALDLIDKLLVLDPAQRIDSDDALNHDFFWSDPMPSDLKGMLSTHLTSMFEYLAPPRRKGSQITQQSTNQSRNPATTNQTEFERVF

[8] = target: Protein cereblon/Cyclin-dependent kinase 9 (Homo sapiens, UniProt P50750+Q96SW2); assay: Protac activity at CRBN/CDK9 in human MCF7 cells assessed as degradation of CDK9 measured after 24 hrs by western blot analysis; assay type: cell-based
[9] = target: T4, Cyclin-dependent kinase 9 (Homo sapiens, UniProt P50750); assay: Inhibition of CDK9 (unknown origin) using TMB as substrate by ELISA
T4 sequence (P50750 whole entry): as above

[10] = target: T5, Cyclin-dependent kinase 4 (Homo sapiens, UniProt P11802); assay: Inhibition of CDK4 (unknown origin)
T5 sequence (P11802 whole entry): as the sequence (P11802 whole entry) above

[11] = target: T6, Cyclin-dependent kinase 2 (Homo sapiens, UniProt P24941); assay: Inhibition of CDK2 (unknown origin) by LANCE ULight TR-FRET assay
[12] = target: T7, Cyclin-dependent kinase 8 (Homo sapiens, UniProt P49336); assay: Inhibition of CDK8 (unknown origin) by LANCE ULight TR-FRET assay
T7 sequence (P49336 whole entry): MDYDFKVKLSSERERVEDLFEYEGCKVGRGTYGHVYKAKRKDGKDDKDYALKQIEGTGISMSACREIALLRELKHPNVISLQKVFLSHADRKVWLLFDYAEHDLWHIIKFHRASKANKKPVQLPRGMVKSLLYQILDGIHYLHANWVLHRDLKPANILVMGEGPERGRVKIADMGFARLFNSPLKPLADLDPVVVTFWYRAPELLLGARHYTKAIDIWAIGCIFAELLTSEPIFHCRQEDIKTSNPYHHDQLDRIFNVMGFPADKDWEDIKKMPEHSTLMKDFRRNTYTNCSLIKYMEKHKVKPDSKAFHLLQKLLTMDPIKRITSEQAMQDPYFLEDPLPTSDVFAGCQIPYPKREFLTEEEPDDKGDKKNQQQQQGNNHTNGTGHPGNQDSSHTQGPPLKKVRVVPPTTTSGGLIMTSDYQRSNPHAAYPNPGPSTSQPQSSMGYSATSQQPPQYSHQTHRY

[13] = target: T8, Cyclin-dependent kinase 1 (Homo sapiens, UniProt P06493); assay: Inhibition of CDK1 (unknown origin) by LANCE ULight TR-FRET assay
T8 sequence (P06493 whole entry): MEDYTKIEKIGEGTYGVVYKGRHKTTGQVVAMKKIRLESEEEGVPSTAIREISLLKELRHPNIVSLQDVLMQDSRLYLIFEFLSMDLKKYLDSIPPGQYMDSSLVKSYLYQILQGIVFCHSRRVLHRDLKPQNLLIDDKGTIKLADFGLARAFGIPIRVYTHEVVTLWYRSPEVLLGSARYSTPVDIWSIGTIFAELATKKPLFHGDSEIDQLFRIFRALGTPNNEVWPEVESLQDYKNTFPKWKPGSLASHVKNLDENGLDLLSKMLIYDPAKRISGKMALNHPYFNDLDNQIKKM

[14] = target: T2, Cyclin-dependent kinase 7; assay: Inhibition of CDK7 (unknown origin) by LANCE ULight TR-FRET assay
[15] = target: T5, Cyclin-dependent kinase 4; assay: Inhibition of CDK4 (unknown origin) by LANCE ULight TR-FRET assay
[16] = target: CDK6/cyclin D3 (Homo sapiens, UniProt Q00534); assay: Inhibition of human CDK6/Cyclin D3 in presence of gamma32P-ATP by scintillation counter analysis; assay type: protein-complex assay
Sequence of CDK6/cyclin D3 (P30281 whole entry): as the sequence (P30281 whole entry, further chain) above
Sequence of CDK6/cyclin D3 (Q00534 whole entry): as the sequence (Q00534 whole entry) above

[17] = target: Cyclin-dependent kinase 1/cyclin B (Homo sapiens, UniProt P06493); assay: Inhibition of human CDK1/Cyclin B in presence of gamma32P-ATP by scintillation counter analysis; assay type: protein-complex assay
[18] = target: T3, Cyclin-dependent kinase 4/cyclin D1; assay: Inhibition of human CDK4/Cyclin D1 assessed as substrate phosphorylation at ser780 using GST tagged retinoblastoma as substrate in presence of gamma32P-ATP by scintillation counter analysis; assay type: protein-complex assay
[19] = target: T1, Cyclin-dependent kinase 2/cyclin A; assay: Inhibition of human CDK2/Cyclin A in presence of gamma32P-ATP by scintillation counter analysis; assay type: protein-complex assay
[20] = target: T4, Cyclin-dependent kinase 9; assay: Inhibition of CDK9 (unknown origin) by Kinomescan method
[21] = target: Cyclin-dependent kinase 5 (Homo sapiens, UniProt Q00535); assay: Inhibition of CDK5 (unknown origin) by Kinomescan method
[22] = target: Cyclin-dependent kinase 18 (Homo sapiens, UniProt Q07002); assay: Inhibition of CDK18 (unknown origin) by Kinomescan method
[23] = target: T4, Cyclin-dependent kinase 9; assay: Inhibition of CDK9 (unknown origin) at 1 uM by Kinomescan method
[24] = target: Cyclin-dependent kinase 17 (Homo sapiens, UniProt Q00537); assay: Inhibition of CDK17 (unknown origin) by Kinomescan method
[25] = target: Dual specificity tyrosine-phosphorylation-regulated kinase 1B (Homo sapiens, UniProt Q9Y463); assay: Inhibition of DYRK1B (unknown origin) by Kinomescan method
Sequence of Dual specificity tyrosine-phosphorylation-regulated kinase 1B (Q9Y463 whole entry): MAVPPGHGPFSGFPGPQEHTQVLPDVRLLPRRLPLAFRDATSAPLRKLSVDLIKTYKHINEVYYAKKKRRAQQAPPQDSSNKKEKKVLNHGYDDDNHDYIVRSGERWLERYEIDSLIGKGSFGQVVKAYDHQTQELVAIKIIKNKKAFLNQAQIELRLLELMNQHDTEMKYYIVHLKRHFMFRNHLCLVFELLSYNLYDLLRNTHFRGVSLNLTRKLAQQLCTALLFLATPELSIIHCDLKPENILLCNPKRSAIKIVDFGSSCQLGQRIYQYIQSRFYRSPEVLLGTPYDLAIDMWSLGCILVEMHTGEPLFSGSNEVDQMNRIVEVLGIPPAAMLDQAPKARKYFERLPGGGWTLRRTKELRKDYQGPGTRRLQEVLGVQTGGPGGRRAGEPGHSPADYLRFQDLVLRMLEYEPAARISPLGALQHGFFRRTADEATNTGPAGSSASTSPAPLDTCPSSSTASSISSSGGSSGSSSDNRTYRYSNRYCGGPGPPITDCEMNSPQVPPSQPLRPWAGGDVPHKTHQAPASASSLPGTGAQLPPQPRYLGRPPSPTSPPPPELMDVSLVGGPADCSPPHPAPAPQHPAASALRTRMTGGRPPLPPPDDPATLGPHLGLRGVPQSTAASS

[26] = target: Cyclin-dependent kinase 14 (Homo sapiens, UniProt O94921); assay: Inhibition of CDK14 (unknown origin) by Kinomescan method
Sequence of Cyclin-dependent kinase 14 (O94921 whole entry): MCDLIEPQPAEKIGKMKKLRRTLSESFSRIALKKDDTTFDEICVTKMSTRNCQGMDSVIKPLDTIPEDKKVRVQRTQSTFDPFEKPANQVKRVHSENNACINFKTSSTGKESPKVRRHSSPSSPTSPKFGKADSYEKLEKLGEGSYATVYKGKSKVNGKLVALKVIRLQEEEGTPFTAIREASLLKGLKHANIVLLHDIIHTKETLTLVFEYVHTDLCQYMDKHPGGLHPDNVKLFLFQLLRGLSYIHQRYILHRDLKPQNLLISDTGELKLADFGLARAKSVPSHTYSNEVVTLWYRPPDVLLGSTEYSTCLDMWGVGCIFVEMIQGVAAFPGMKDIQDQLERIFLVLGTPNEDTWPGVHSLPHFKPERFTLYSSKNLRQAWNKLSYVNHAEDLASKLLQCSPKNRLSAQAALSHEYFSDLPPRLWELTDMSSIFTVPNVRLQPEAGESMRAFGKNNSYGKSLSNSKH

[27] = target: T6, Cyclin-dependent kinase 2; assay: Inhibition of CDK2 (unknown origin) by Kinomescan method
[28] = target: Cyclin-dependent kinase 16 (Homo sapiens, UniProt Q00536); assay: Inhibition of CDK16 (unknown origin) by Kinomescan method
[29] = target: T7, Cyclin-dependent kinase 8; assay: Inhibition of CDK8 (unknown origin) by Kinomescan method
[30] = target: T2, Cyclin-dependent kinase 7
[31] = target: T8, Cyclin-dependent kinase 1; assay: Inhibition of CDK1 (unknown origin) by Kinomescan method

COc1ccccc1-c1cc(Nc2cccc(CS(N)(=O)=O)c2)ncn1
IC50 [1]: 2440 nM | IC50 [2]: > 10000 nM | IC50 [3]: > 10000 nM | IC50 [4]: 9240 nM | IC50 [5]: 5510 nM

CN(C)CCNC(=O)c1ccc(Nc2ncc3cc(C(=O)N(C)C)n(C4CCCC4)c3n2)c(F)c1
IC50 [6]: 2.5 nM | IC50 [7]: 7 nM

O=C1CCC(N2C(=O)c3cccc(NC(=O)CCCCCn4cc(Oc5c(O)cc(O)c6c(=O)cc(-c7ccccc7)oc56)nn4)c3C2=O)C(=O)N1 (stereo unspecified)
DC50 [8]: 10000 nM

O=C1N=NC(=O)/C(=C/Nc2ccc(-c3nc4ncccc4[nH]3)cc2)C(=O)N1
IC50 [9]: 500 nM

Fc1ccc(N2CCCCC2)c(NC(=S)c2ccncc2)c1
IC50 [10]: 30000 nM

COc1ccc(F)cc1-c1c(F)cnc2[nH]c(C3=CCN([C@H]4CC[C@H](C(=O)O)CC4)CC3)cc12
IC50 [11]: 328 nM | IC50 [12]: 1610 nM | IC50 [13]: 348 nM | IC50 [14]: 14400 nM | IC50 [15]: 16.2 nM

CN1CCC(c2c(O)cc(O)c3c(=O)cc(-c4ccccc4Cl)oc23)C1CO (stereo unspecified) [RIVICICLIB]
IC50 [16]: 396 nM | IC50 [17]: 79 nM | IC50 [18]: 63 nM | IC50 [19]: 224 nM

COC[C@@H](C)N[C@H]1CC[C@H](Nc2cc(-c3cccc(NCC4(C#N)CCOCC4)n3)c(Cl)cn2)CC1
IC50 [20]: < 0.514 nM | IC50 [21]: 1050 nM | IC50 [22]: 4900 nM | inhibition [23]: 99% | IC50 [24]: 1500 nM | IC50 [25]: 350 nM | IC50 [26]: 3450 nM | IC50 [27]: 706 nM | IC50 [28]: 605 nM | IC50 [29]: > 10000 nM | IC50 [30]: > 10000 nM | IC50 [31]: 584 nM
